Source: patent US7303876B2 (Applera Corporation, priority 2000, dated 2007)
Where two headings read alike, the source gives them in different places.

Experiments:
slices of liver = assay: Maceration of liver slices by reaction compositions at 65° C.; conditions: 65° C.
Protocol: Initially, a series of reaction compositions were analyzed for their ability to disaggregate a biological sample, e.g., slices of liver. These reaction compositions comprised 100 mM Tris, pH 8.0, 20 mM dithiothreitol (DTT), and optionally,1 mg/ml Proteinase K, surfactants (e.g., cationic, nonionic and anionic detergents), chaotropes, or the additive 1-methyl-2-pyrollidinone (Sigma). Each reaction compositions was placed in a tube with a slice of liver and then incubated at 65° C. The tubes were observed periodically to determine which reaction compositions were able to efficiently macerate the sample.

Liver tissue [1] = assay: Nucleic acid release from liver slices, pH 6, 45° C., 30 minutes, surfactants and additives; conditions: for amount of nucleic acid released in comparison with surfactant without an additive: FIG. 7
Protocol: To compare CTACl to CTAB, those two surfactants were evaluated in parallel along with hexadecyltrimethylammonium bromide (HDTAB), hexadecyltrimethylammonium chloride (HDTACl), and Sarkosyl. Three additives, phenylglyoxal, acridine orange (e.g., Sigma #A6014), and 1-methyl-2-pyrolidinone, were also evaluated. Phenylglyoxal was tested to determine if it would reduce RNAse activity. […] 1-Methyl-2-pyrrolidinone was tested to see if it would enhance solubility of the sample by various reaction compositions.
Slices of liver-tissue (100-200 mg/sample) were placed into twenty-one Eppendorf tubes. Four hundred microliters of a reaction composition, comprising 100 mM MES, pH 6, 20 mM CaCl2, and 1 mg Proteinase K, was added to each tube.
The tubes were incubated at 45° C. for 30 minutes with mixing (Eppendorf Thermomixer, Model 5436). Surfactant: protease complexes were solubilized using methods the same as or similar to those described in Example 7. Remaining tissue fragments were removed by centrifugation using methods the same as or similar to those described in Example 7. The supernatant was phenol extracted, isopropanol precipitated, and ethanol washed using methods the same as or similar to those described in Example 6.

Liver tissue [2] = assay: Liver tissue disaggregation by 1% surfactant with or without Proteinase K at 60° C.; set-up: Tissue Disaggregation: scale not given here; conditions: 60° C., 1% surfactant
Protocol: To evaluate the ability of various cationic surfactants to increase the digestion of tissue by Proteinase K, liver slices were digested using reaction compositions including one of the sixteen surfactants (shown in Table 4), both with and without Proteinase K. The reducing agent dithiothreitol (DTT) was included to evaluate the effect of reducing conditions on tissue digestion. […] One of the sixteen surfactants was added to one pair of tubes to yield a final concentration of 1% surfactant. The seventeenth pair of tubes served as non-surfactant controls. One milligram (mg) of Proteinase K was added to one tube of each of the seventeen pairs.
PK=presence or absence of Proteinase K in the reaction composition; Y=Proteinase K was present; N=Proteinase K was not present in the reaction composition.

[3] = Solubility of surfactants (0.5% Sarkosyl, LDS, SDS, CTAB; 5.0% others) in salt solutions
Protocol: In certain instances, the solubility of detergents in high salt may relate to on the composition of the salt and the detergent itself. A mixing experiment was performed to examine the solubility of a variety of anionic, cationic, and nonionic surfactants in different salt compositions. […] The salt solutions contained Lil, Nal, KI, Rbl, Csl , GuSCN, GuHCl, or NaClO4, at pH 6.0 or 10.0. […] The solubility of the surfactants was scored as either soluble or insoluble. The solubility of the surfactant in the salt solution was determined initially by visual observations for cloudiness or precipitate formation. The resulting solutions were also centrifuged to verify the absence of a precipitate by the absence of a precipitate pellet.

[4] = Solubility of 1% cationic surfactants in 5M chaotropic salt solutions containing 2% Tween 20
From the text: The solubilities of several cationic surfactants were examined in different chaotropic salt solutions. The cationic surfactants examined were cetyltrimethylammonium bromide (CTAB), cetyltrimethylammonium chloride (CTACl), tetradecyltrimethylammonium bromide (TTAB), tetradecyltrimethylammonium chloride (TTACl), dodecyltrimethylammonium bromide (DTAB), dodecyltrimethylammonium (DTACl), dodecylethyidimethylammonium bromide (DEDTAB), decyltrimethylammonium bromide (D10TAB), and dodecyltriphenylphosphonium bromide (DTPB). Each of the cationic surfactants tested was presented in a 1% concentration. Each of the cationic surfactants was examined in a 5M solution of one of the chaotropic salts containing 2% Tween 20. Each cationic surfactant and salt combination was tested at pH 6 (50 mM MES), pH 8 (50 mM Tris-HCl), and pH 10 (50 mM AMP).

[5] = No Proteinase K, 16-24 hr, additive 2%
[6] = Fifteen Minutes Incubation, Proteinase K not present (N)
[7] = Fifteen Minutes Incubation, Proteinase K present (Y)
[8] = Fifty-Two Minutes Incubation, Proteinase K not present (N)
[9] = Fifty-Two Minutes Incubation, Proteinase K present (Y)
[10] = 5M chaotropic salts, 2% Tween 20
[11] = 1 mg/ml Proteinase K, 16-24 hr, additive 0.1%
[12] = 1 mg/ml Proteinase K, 16-24 hr, additive 1%
[13] = 1 mg/ml Proteinase K, 1 hr, additive 0.1%
[14] = 1 mg/ml Proteinase K, 1 hr, additive 1%

Row | Compound | Tissue Disaggregation (Liver tissue [2]; [6]) | Tissue Disaggregation (Liver tissue [2]; [7]) | Tissue Disaggregation (Liver tissue [2]; [8]) | Tissue Disaggregation (Liver tissue [2]; [9]) | Solubility of surfactant ([3]; pH 6) | Solubility of surfactant ([3]; pH 10) | further results
1 | CN1CCCC1=O [1-methyl 2-pyrrolidinone, 1-methyl-2-pyrolidinone] |  |  |  |  |  |  | maceration of liver slice (slices of liver; [5]): 0%; amount of nucleic acid released in comparison with surfactant without an additive (Liver tissue [1]; 10% additive with 1% CTACl): greater; amount of nucleic acid released in comparison with surfactant without an additive (Liver tissue [1]; 10% additive with 1% HDTAB): less
2 | CCCCCCCCCCCCCC[N+](C)(C)Cc1ccccc1.[Cl-] [Benzyldimethyltetradecyl ammonium chloride] | 0 | 0 | 0 | 1 |  |  | 
3 | CCCCCCCCCCCCOCCOCCOCCO [Brij 30, triethyleneglycol monolauryl ether] |  |  |  |  |  |  | Solubility of surfactant ([3]; 4 M GuSCN, Urea, pH 6.0): S; Solubility of surfactant ([3]; 4 M GuSCN, Urea, pH 10.0): S; Solubility of surfactant ([3]; 4 M NaI, Urea, pH 6.0): S(V); Solubility of surfactant ([3]; 6 M GuHCl, pH 6.0): S; Solubility of surfactant ([3]; 6 M GuHCl, pH 10.0): S; Solubility of surfactant ([3]; 6 M GuSCN, pH 6.0): S; Solubility of surfactant ([3]; 6 M GuSCN, pH 10.0): S; Solubility of surfactant ([3]; 6 M NaI, pH 6.0): S
4 | CCCCCCCCCCCC[N+](C)(C)CC.[Br-] [DEDTAB, dodecylethyldimethylammonium bromide] |  |  |  |  |  |  | relative solubility in chaotropic salt solutions (in words) [4, 10]: more soluble than larger surfactants
5 | CCCCCCCCCCCC[N+](C)(C)C.[Cl-] [DTACl, dodecyltrimethylammonium chloride] |  |  |  |  |  |  | relative solubility in chaotropic salt solutions (in words) [4, 10]: more soluble than larger surfactants
6 | CCCCCCCCCCCC[P+](c1ccccc1)(c1ccccc1)c1ccccc1.[Br-] [DTPB, dodecyltriphenylphosphonium bromide] |  |  |  |  |  |  | relative solubility in chaotropic salt solutions (in words) [4]: more soluble than larger surfactants
7 | CCCCCCCCCCCCCCCC[N+](C)(C)C.[Cl-] [HDTACl, hexadecyltrimethylammonium chloride] |  |  |  |  |  |  | high molecular weight nucleic acid by gel electrophoresis (Liver tissue [1]; with 1-methyl-2-pyrolidinone): High molecular weight nucleic acid was also observed
8 | CCCCCCCCCCCCCCCC[N+](C)(C)C.[Br-] [Hexadecyltrimethylammonium bromide, hexadecyltrimethylammonium bromide] | 0 | 0 | 0 | 1 |  |  | high molecular weight nucleic acid by gel electrophoresis (Liver tissue [1]; all reaction compositions containing the surfactant, FIG. 8): high molecular weight nucleic acid was apparent
9 | CCCCCCCC/C=C\CCCCCCCC[N+](C)(C)Cc1ccccc1.[Cl-] [Mackernium KP, olealkonium chloride] | 0 | 1 | 0 | 4 |  |  | 
10 | CCCCCCCCCCCCCCCCCC[N+](C)(C)Cc1ccccc1.[Cl-] [Mackernium SDC-85, Stearalkonium chloride] | 0 | 3 | 0 | 3 |  |  | 
11 | CCCCCCCCCC[N+](C)(C)C.[Br-] [Sample D10TAB, decyltrimethylammonium bromide] |  |  |  |  |  |  | relative solubility in chaotropic salt solutions (in words) [4]: more soluble than larger surfactants
12 | CCCCCCCCCCCCCC[N+](C)(C)C.[Br-] [TTAB, tetradecyltrimethylammonium bromide] | 0 | 0 | 0 | 1 |  |  | 
13 | (octylphenoxy)polyethoxyethanol [IGEPA] |  |  |  |  | S | S | 
14 | Benzalkonium Chloride | 0 | 1 | 0 | 2 |  |  | 
15 | Quaternium-84 [Mackernium NLE] | 0 | 1 | 0 | 1 |  |  | 
16 | polyoxyethylenesorbitan monolaurate [Tween 21] |  |  |  |  | S | S | 
17 | polyoxyethylenesorbitan monooleate [Tween 80] |  |  |  |  | S | S | maceration of liver slice (slices of liver; [11]): 0%; maceration of liver slice (slices of liver; [12]): 0%; maceration of liver slice (slices of liver; [13]): 0%; maceration of liver slice (slices of liver; [14]): 0%
18 | polyoxyethylenesorbitan monopalmitate [Tween 40] |  |  |  |  | S | S | 
19 | polyoxyethylenesorbitan monostearate [Tween 60] |  |  |  |  | S | S | 
20 | t-octylphenoxypolyethoxyethanol [Triton X-100] |  |  |  |  | S | S | maceration of liver slice (slices of liver; [11]): 0%; maceration of liver slice (slices of liver; [12]): 100%; maceration of liver slice (slices of liver; [13]): 0%; maceration of liver slice (slices of liver; [14]): 30%; maceration of liver slice (slices of liver; No Proteinase K, 2-5 hr, additive 2%): 0%; maceration of liver slice (slices of liver; [5]): 0%
